# Test results as given in the supplement of paper PMC10307832.
# Columns and labels:
# Assay in all cases: relative viability (nuclei count vs DMSO), 5 days (fraction); higher = more cells survive
# Erlotinib + Olaparib = compound: C#Cc1cccc(Nc2ncnc3cc(OCCOC)c(OCCOC)cc23)c1 [Erlotinib] + O=C(c1cc(Cc2n[nH]c(=O)c3ccccc23)ccc1F)N1CCN(C(=O)C2CC2)CC1 [Olaparib] (partner 8 µM)
# Procedure, shortened: (§1)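 Relative viability was taken as the ratio of nuclei in treated wells to nuclei in vehicle wells. Lung cancer cell lines in 1536-well plates received compounds by pin tool one day after seeding, either one drug alone or a fixed anchor-drug dose plus five library-drug doses (not always all listed) in √10 steps. Nuclei were counted on 4× images after 5 days of treatment, and values are medians of duplicate plates.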
# AT9283 + Foretinib = compound: O=C(Nc1c[nH]nc1-c1nc2ccc(CN3CCOCC3)cc2[nH]1)NC1CC1 [AT9283] + COc1cc2c(Oc3ccc(NC(=O)C4(C(=O)Nc5ccc(F)cc5)CC4)cc3F)ccnc2cc1OCCCN1CCOCC1 [Foretinib] (partner 0.25 µM)
# Procedure, shortened: as §1
# AT9283 + Tozasertib = compound: O=C(Nc1c[nH]nc1-c1nc2ccc(CN3CCOCC3)cc2[nH]1)NC1CC1 [AT9283] + Cc1cc(Nc2cc(N3CCN(C)CC3)nc(Sc3ccc(NC(=O)C4CC4)cc3)n2)n[nH]1 [Tozasertib] (partner 0.1 µM)
# Procedure, shortened: as §1
# Erlotinib + Luminespib = compound: C#Cc1cccc(Nc2ncnc3cc(OCCOC)c(OCCOC)cc23)c1 [Erlotinib] + CCNC(=O)c1noc(-c2cc(C(C)C)c(O)cc2O)c1-c1ccc(CN2CCOCC2)cc1 [Luminespib] (partner 0.01 µM)
# Procedure, shortened: as §1
# Erlotinib + OSI-027 = compound: C#Cc1cccc(Nc2ncnc3cc(OCCOC)c(OCCOC)cc23)c1 [Erlotinib] + COc1cccc2cc(-c3nc([C@H]4CC[C@H](C(=O)O)CC4)n4ncnc(N)c34)[nH]c12 [OSI-027] (partner 0.5 µM)
# Procedure, shortened: as §1
Cell Line,relative viability (Erlotinib + Olaparib; first compound 0.02 µM),relative viability (Erlotinib + Olaparib; first compound 0.2 µM),relative viability (Erlotinib + Olaparib; first compound 0.6325 µM),relative viability (Erlotinib + Olaparib; first compound 2 µM),relative viability (AT9283 + Foretinib; first compound 0.003 µM),relative viability (AT9283 + Foretinib; first compound 0.03 µM),relative viability (AT9283 + Foretinib; first compound 0.09487 µM),relative viability (AT9283 + Foretinib; first compound 0.3 µM),relative viability (AT9283 + Tozasertib; first compound 0.003 µM),relative viability (AT9283 + Tozasertib; first compound 0.03 µM),relative viability (AT9283 + Tozasertib; first compound 0.09487 µM),relative viability (AT9283 + Tozasertib; first compound 0.3 µM),relative viability (Erlotinib + Luminespib; first compound 0.02 µM),relative viability (Erlotinib + Luminespib; first compound 0.2 µM),relative viability (Erlotinib + Luminespib; first compound 0.6325 µM),relative viability (Erlotinib + Luminespib; first compound 2 µM),relative viability (Erlotinib + OSI-027; first compound 0.02 µM),relative viability (Erlotinib + OSI-027; first compound 0.2 µM),relative viability (Erlotinib + OSI-027; first compound 0.6325 µM),relative viability (Erlotinib + OSI-027; first compound 2 µM)
NCI-H2228,0.678,0.701,0.537,0.604,0.968,0.613,0.26,0.104,0.333,0.199,0.142,0.138,0.151,0.131,0.149,0.121,0.643,0.537,0.525,0.366
LK-2,0.914,0.706,0.804,0.611,0.965,0.31,0.159,0.129,0.174,0.225,0.172,0.209,0.151,0.166,0.203,0.15,0.202,0.211,0.21,0.192
NCI-H460,0.453,0.345,0.425,0.363,0.983,0.907,0.184,0.0594,0.388,0.198,0.0277,0.0528,0.03,0.0268,0.033,0.0356,–,0.547,0.469,0.217
UMC-11,0.987,0.426,0.477,0.324,0.996,0.181,0.175,0.184,0.19,0.221,0.207,0.21,1.05,0.93,1.32,1.11,–,0.412,0.492,0.424
NCI-H1793,0.819,0.391,0.686,0.436,0.729,0.484,0.256,0.219,0.327,0.383,0.201,0.171,0.167,0.19,0.169,0.125,0.281,0.225,0.235,0.156
NCI-H1437,0.638,0.646,0.607,0.612,1.33,0.974,0.533,0.323,0.426,0.321,0.215,0.238,1.15,1.18,1.1,1.03,0.856,0.919,0.832,0.716
NCI-H2087,0.622,0.576,0.576,0.469,1.03,0.388,0.195,0.132,0.24,0.192,0.189,0.148,0.253,0.15,0.224,0.152,0.615,–,0.533,0.384
LU99A,0.309,0.29,0.252,0.208,0.751,0.34,0.233,0.237,0.268,0.247,0.226,0.222,0.27,0.257,0.231,0.223,0.295,0.303,0.284,0.259
